Measured values taken from US20260256792A1, “TREATMENT OF CHRONIC SPONTANEOUS URTICARIA BY ADMINISTERING (R)-2-[3-[4-AMINO-3-(2-FLUORO-4-PHENOXY-PHENYL)PYRAZOLO[3,4-D]PYRIMIDIN-1-YL]PIPERIDINE-1-CARBONYL]-4-METHYL-4-[4-(OXETAN-3-YL)PIPERAZIN-1-YL]PENT-2-ENENITRILE” (priority 2023, published 2026).

Test system: moderate-to-severe chronic spontaneous urticaria (CSU)
Test: Phase 2 CSU study: itch severity score over 7 days (ISS7)
Type: in vivo, human
Conditions: Omalizumab-Naïve
Excerpt: The study comprises a 12 week, randomized, double-blind, placebo-controlled, multi-center, dose-ranging efficacy and safety phase, followed by a 40 week open label extension (OLE) phase (see FIG. 1). The study consists of three phases and an optional OLE phase. […] Clinically, CSU is characterized by the spontaneous and recurrent appearance of pruritic hives. The proposed primary endpoints were the UAS7 at Week 12 in EU and EU reference countries and the ISS7 in the US. Regardless of where a participant was from, all assessments were the same. The UAS7 score is a composite score containing both the HSS7 and the ISS7. This allowed a global assessment of the two key components of urticaria: hives and itch. […] The UAS is a validated PRO measure. […] The daily UAS scores range from 0 to 6 point/day. […] Patients were to complete the UAS using the e-diary. […] The following secondary endpoints were to be analyzed using the same approach as for the primary endpoint: • Change from baseline in UAS7 at Week 4 • Change from baseline in UAS7 at Week 12 (for US and US reference countries) • Change from baseline in ISS7 at Week 12 (except US and US reference countries) • Change from baseline in HSS7 at Week 12

## CC(C)(C=C(C#N)C(=O)N1CCC[C@@H](n2nc(-c3ccc(Oc4ccccc4)cc3F)c3c(N)ncnc32)C1)N1CCN(C2COC2)CC1 [rilzabrutinib, (R)-2-[3-[4-amino-3-(2-fluoro-4-phenoxy-phenyl)pyrazolo[3,4-d]pyrimidin-1-yl]piperidine-1-carbonyl]-4-methyl-4-[4-(oxetan-3-yl)piperazin-1-yl]pent-2-enenitrile]
Outlier removed, 400 mg TID, Week 1
  ISS7 Post-baseline Mean (SD): 9.79 (5.47)
Outlier removed, 400 mg TID, Week 2
  ISS7 Post-baseline Mean (SD): 8.59 (5.80)
Outlier removed, 400 mg TID, Week 3
  ISS7 Post-baseline Mean (SD): 8.18 (5.41)
Outlier removed, 400 mg TID, Week 4
  ISS7 Post-baseline Mean (SD): 7.79 (5.03)
Outlier removed, 400 mg TID, Week 5
  ISS7 Post-baseline Mean (SD): 6.92 (5.87)
Outlier removed, 400 mg TID, Week 6
  ISS7 Post-baseline Mean (SD): 7.32 (6.05)
Outlier removed, 400 mg TID, Week 7
  ISS7 Post-baseline Mean (SD): 7.14 (5.35)
Outlier removed, 400 mg TID, Week 8
  ISS7 Post-baseline Mean (SD): 7.24 (5.51)
Outlier removed, 400 mg TID, Week 9
  ISS7 Post-baseline Mean (SD): 6.68 (5.31)
Outlier removed, 400 mg TID, Week 10
  ISS7 Post-baseline Mean (SD): 6.75 (5.25)
Outlier removed, 400 mg TID, Week 11
  ISS7 Post-baseline Mean (SD): 6.99 (5.53)
Outlier removed, 400 mg TID, Week 12
  ISS7 Post-baseline Mean (SD): 5.77 (5.26)
400 mg BID, Week 1
  ISS7 % Change difference for rilzabrutinib vs. placebo LS Mean (95% CI): −23.80 (−38.99, −8.60) %
  ISS7 % Change from baseline LS Mean (SE): −33.92 (5.73) %
  ISS7 Change difference for rilzabrutinib vs. placebo LS Mean (95% CI): −3.14
  ISS7 Change from baseline LS Mean (SE): −5.06 (0.83)
400 mg BID, Week 2
  ISS7 % Change difference for rilzabrutinib vs. placebo LS Mean (95% CI): −17.28 (−32.06, −2.50) %
  ISS7 % Change from baseline LS Mean (SE): −35.92 (5.58) %
  ISS7 Change difference for rilzabrutinib vs. placebo LS Mean (95% CI): −2.26
  ISS7 Change from baseline LS Mean (SE): −5.49 (0.83)
  ISS7 Post-baseline Mean (SD): 10.32 (5.64)
400 mg BID, Week 3
  ISS7 % Change difference for rilzabrutinib vs. placebo LS Mean (95% CI): −20.30 (−35.19, −5.41) %
  ISS7 % Change from baseline LS Mean (SE): −40.91 (5.60) %
  ISS7 Change difference for rilzabrutinib vs. placebo LS Mean (95% CI): −2.82
  ISS7 Change from baseline LS Mean (SE): −6.52 (0.87)
  ISS7 Post-baseline Mean (SD): 9.16 (6.09)
400 mg BID, Week 4
  ISS7 % Change difference for rilzabrutinib vs. placebo LS Mean (95% CI): −20.53 (−36.37, −4.69) %
  ISS7 % Change from baseline LS Mean (SE): −43.47 (5.96) %
  ISS7 Change difference for rilzabrutinib vs. placebo LS Mean (95% CI): −2.86
  ISS7 Change from baseline LS Mean (SE): −6.96 (0.93)
  ISS7 Post-baseline Mean (SD): 8.32 (6.02)
400 mg BID, Week 5
  ISS7 Post-baseline Mean (SD): 8.88 (6.81)
400 mg BID, Week 6
  ISS7 Post-baseline Mean (SD): 8.85 (6.40)
400 mg BID, Week 7
  ISS7 Post-baseline Mean (SD): 8.21 (6.16)
400 mg BID, Week 8
  ISS7 Post-baseline Mean (SD): 7.33 (6.55)
400 mg BID, Week 9
  ISS7 Post-baseline Mean (SD): 7.63 (7.11)
400 mg BID, Week 10
  ISS7 Post-baseline Mean (SD): 8.17 (7.29)
400 mg BID, Week 11
  ISS7 Post-baseline Mean (SD): 7.93 (6.94)
400 mg BID, Week 12
  ISS7 % Change difference for rilzabrutinib vs. placebo LS Mean (95% CI): −14.10 (−32.26, 4.06) %
  ISS7 % Change from baseline LS Mean (SE): −48.31 (6.75) %
  ISS7 Change difference for rilzabrutinib vs. placebo LS Mean (95% CI): −1.96
  ISS7 Change from baseline LS Mean (SE): −7.73 (1.06)
  ISS7 Post-baseline Mean (SD): 8.09 (6.95)
400 mg QPM, Week 1
  ISS7 % Change difference for rilzabrutinib vs. placebo LS Mean (95% CI): −8.25 (−23.30, 6.80) %
  ISS7 % Change from baseline LS Mean (SE): −18.38 (5.55) %
  ISS7 Change difference for rilzabrutinib vs. placebo LS Mean (95% CI): −1.33
  ISS7 Change from baseline LS Mean (SE): −3.25 (0.80)
  ISS7 Post-baseline Mean (SD): 13.08 (4.52)
400 mg QPM, Week 2
  ISS7 % Change difference for rilzabrutinib vs. placebo LS Mean (95% CI): −5.32 (−19.96, 9.32) %
  ISS7 % Change from baseline LS Mean (SE): −23.96 (5.37) %
  ISS7 Change difference for rilzabrutinib vs. placebo LS Mean (95% CI): −0.76
  ISS7 Change from baseline LS Mean (SE): −3.99 (0.80)
400 mg QPM, Week 3
  ISS7 % Change difference for rilzabrutinib vs. placebo LS Mean (95% CI): −8.38 (−23.14, 6.38) %
  ISS7 % Change from baseline LS Mean (SE): −28.99 (5.42) %
  ISS7 Change difference for rilzabrutinib vs. placebo LS Mean (95% CI): −1.12
  ISS7 Change from baseline LS Mean (SE): −4.82 (0.85)
  ISS7 Post-baseline Mean (SD): 11.60 (4.68)
400 mg QPM, Week 4
  ISS7 % Change difference for rilzabrutinib vs. placebo LS Mean (95% CI): −7.02 (−22.76, 8.71) %
  ISS7 % Change from baseline LS Mean (SE): −29.97 (5.75) %
  ISS7 Change difference for rilzabrutinib vs. placebo LS Mean (95% CI): −0.93
  ISS7 Change from baseline LS Mean (SE): −5.03 (0.89)
  ISS7 Post-baseline Mean (SD): 11.39 (4.79)
400 mg QPM, Week 5
  ISS7 Post-baseline Mean (SD): 11.00 (4.68)
400 mg QPM, Week 6
  ISS7 Post-baseline Mean (SD): 10.27 (5.26)
400 mg QPM, Week 7
  ISS7 Post-baseline Mean (SD): 10.68 (5.34)
400 mg QPM, Week 8
  ISS7 Post-baseline Mean (SD): 10.72 (5.26)
400 mg QPM, Week 10
  ISS7 Post-baseline Mean (SD): 10.43 (5.30)
400 mg QPM, Week 11
  ISS7 Post-baseline Mean (SD): 11.03 (5.55)
400 mg QPM, Week 12
  ISS7 % Change difference for rilzabrutinib vs. placebo LS Mean (95% CI): −0.54 (−18.55, 17.47) %
  ISS7 % Change from baseline LS Mean (SE): −34.75 (6.64) %
  ISS7 Change difference for rilzabrutinib vs. placebo LS Mean (95% CI): 0.58
  ISS7 Change from baseline LS Mean (SE): −5.19 (1.02)
400 mg TID, Week 1
  ISS7 % Change from baseline LS Mean (SE): −37.45 (5.78) %
  ISS7 Change difference for rilzabrutinib vs. placebo LS Mean (95% CI): −4.21
  ISS7 Change from baseline LS Mean (SE): −6.13 (0.82)
  ISS7 Post-baseline Mean (SD): 9.51 (5.64)
400 mg TID, Week 2
  ISS7 % Change difference for rilzabrutinib vs. placebo LS Mean (95% CI): −27.63 (−42.70, −12.56) %
  ISS7 % Change from baseline LS Mean (SE): −46.27 (5.61) %
  ISS7 Change difference for rilzabrutinib vs. placebo LS Mean (95% CI): −4.14
  ISS7 Change from baseline LS Mean (SE): −7.37 (0.82)
  ISS7 Post-baseline Mean (SD): 8.40 (5.82)
400 mg TID, Week 3
  ISS7 % Change difference for rilzabrutinib vs. placebo LS Mean (95% CI): −27.20 (−42.33, −12.08) %
  ISS7 % Change from baseline LS Mean (SE): −47.81 (5.64) %
  ISS7 Change difference for rilzabrutinib vs. placebo LS Mean (95% CI): −3.58
  ISS7 Change from baseline LS Mean (SE): −7.29 (0.87)
  ISS7 Post-baseline Mean (SD): 8.34 (5.42)
400 mg TID, Week 4
  ISS7 % Change difference for rilzabrutinib vs. placebo LS Mean (95% CI): −24.55 (−40.74, −8.36) %
  ISS7 % Change from baseline LS Mean (SE): −47.50 (6.02) %
  ISS7 Change difference for rilzabrutinib vs. placebo LS Mean (95% CI): −3.23
  ISS7 Change from baseline LS Mean (SE): −7.33 (0.92)
  ISS7 Post-baseline Mean (SD): 7.79 (5.03)
